These are literature values, as cited in patent US8163058B2 (Whitehurst Associates, Inc., priority 2009, dated 2012).

For the data set the following is noted: prior art description.

As to `CCCCNP(N)(N)=S` [NBPT, N-(n-butyl) thiophosphoric triamide], the Hydrolytic stability result is “undergoes hydrolysis” and the Thermal stability entry is reported as “thermally unstable”.
